Values quoted from earlier work, collected in patent publication US20110053898A1, “TOPICAL COMPOSITION COMPRISING VITAMIN D ANALOGUE AND CORTICOSTEROIDS” (GLENMARK GENERICS LTD, priority 2009, published 2011).

Details: vitamin-D3 derivative versus calcitriol

C=C1/C(=C/C=C2\CCC[C@]3(C)[C@@H]([C@H](C)/C=C/C(O)C4CC4)CC[C@@H]23)C[C@@H](O)C[C@@H]1O (stereo partly shown) [Calcipotriene]
Power relative to the natural hormone calcitriol: about 1%
